Molecules are shown by their SMILES.

20 compounds from patent publication US11447511B2, “Dioxolane analogues of uridine for the treatment of cancer” (MEDIVIR AB, priority 2014, dated 2022) can be followed below.

Series [1] in a line: Stability in human intestinal S9 fraction (HIS9). It is filed as in vitro ADME. The conditions noted are these: human intestinal S9 0.4 mg protein/mL, 5 μM test compound, 37° C. As for the experimental part:
(§1) Stability in Human Intestinal S9 Fraction (HIS9) and in Human Liver S9 Fraction (HLS9),
(§2) Stock solutions of each test compound (10 mM) were prepared in DMSO and stored at −20° C. Prior to the start of the experiment, the test compounds were diluted to 500 μM in 50% acetonitrile in water. The reaction mixture was prepared in a total volume of 250 μL containing 5 mM MgC2, 1 mM NADPH and 5 μM test compound in 50 mM potassium phosphate buffer (pH 7.4). The reaction was initiated by addition of human liver or intestinal S9 fraction with a final concentration of 0.4 mg protein/mL (Xeno Tech). The reaction mixture was incubated on an orbital shaker at 37° C. At the desired time points (0, 10, 30 and 60 minutes) aliquots of 50 μL were taken and the reaction was stopped by mixing with 150 μL acetonitrile containing internal standard. Standard solutions of each test compound were prepared from the 500 μM solution by diluting the solution to a final concentration of 5 μM in boiled human S9 (0.4 mg protein/mL), 5 mM MgCl2 and 50 mM potassium phosphate buffer (pH 7.4). The standards and samples were kept on ice for 30 min then centrifuged at 3 000 g for 20 minutes at 10° C., there after 10 μL of supernatant was mixed with 200 μL 50% acetonitrile in water. 0.5 μM of each test compound in 50% acetonitrile in water was injected into the LC/MS-MS to determine the daughter ion, declustring potential (DP), collision energy (CE) and collision cell exit potential (CXP) in order to develop a LC/MS-MS method. The compounds were separated using a C18 column with a QTRAP5500 system. The mobile phase consisted of solvent A (98% water, 2% acetonitrile, 0.1% acetic acid or 10 mM ammonium acetate) and solvent B (80% acetonitrile, 20% water, 0.1% acetic acid or 10 mM ammonium acetate). Elution of the compounds was performed by using a gradient of solvent B from 0% to 100%. 5 μL of standard points and samples were injected for analysis with QTRAP5500.
(§3) The amount of parent compound was determined on the basis of the peak area for each time point compared to standard which was set to 5 μM. Intrinsic clearance (CLint) and half-life (t1/2) were determined from the disappearance curves of the test compound using Excel software.

The nature of series [2]: Stability in human liver S9 fraction (HLS9). It is filed as in vitro ADME. The settings on record: human liver S9 0.4 mg protein/mL, 5 μM test compound, 37° C. The method, then:
as §1, §2, §3

For a further series, the system named is Huh7. Kind of series: Cell cytotoxicity assay, HUH7. It is filed as cell-based. The settings on record: Huh7 cells, 5 days at 37° C., XTT dye. The method, then:
(§4) Cells were seeded 24 hours prior to compound addition. Each test compound (serially diluted from 100 μM) was added to Huh7 (1.5×10^4 cells/well) or HepG2 (1.5×10^4 cells/well), and allowed to incubate for 5 days at 37° C. A medium only control was used to determine the minimum absorbance value and an untreated cell value. At the end of the growth period, XTT dye from Polysciences Europe GmbH was added to each well. The absorbance at 450 nm with a reference wavelength of 600 nm was read with a Sunrise (Tecan) using the medium only control wells as blanks. The 50% inhibition value (CC50) was determined by comparing the degree of inhibition (compared to cell control) plotted against compound concentration. Results from the dilution series were fitted to a sigmoidal dose-response curve.
(§5) Compounds of the invention were evaluated in these assays to assess the stability in human intestinal S9 fraction (HIS9) and human liver S9 fraction (HLS9), and for Cell Cytotoxicity in HUH7, HEP3B and HEPG2 cells.
Background: Tetrazolium dyes change colour on reduction, which living cells bring about.

A further series relates to HEP3B. Kind of series: Cell cytotoxicity assay, HEP3B. It is filed as cell-based. The conditions noted are these: HEP3B cells. The method, then: as §4, §5
For another series, the system named is HepG2. Kind of series: Cell cytotoxicity assay, HEPG2. The settings on record: HepG2 cells, 5 days at 37° C., XTT dye. Type of series: cell-based. The method, then: as §4, §5

In general, CC50 refers to the concentration at which the toxic effect on the cells reaches its halfway point. Read a low CC50 as greater toxicity to the cells. Turning to `CC[C@@H](C)OC(=O)[C@H](C)NP(=O)(OC[C@H]1OC[C@@H](n2ccc(N)nc2=O)O1)Oc1ccc([Si](C)(C)C)cc1` (single isomer, unassigned; dia-1) [11 dia-1], the “CLint Intestinal S9” value in series [1] was found to be 6 µL/min/mg. Further, the “CLint Liver S9” value in series [2] was determined as 51 µL/min/mg. Also, the CC50 with Huh7 was found to be 0.026 µM; in the series on HEP3B, 0.018 µM; in the series with HepG2, 0.054 µM.

In the case of `CCC[C@H](C)OC(=O)[C@H](C)NP(=O)(OC[C@H]1OC[C@@H](n2ccc(N)nc2=O)O1)Oc1ccc(C2CC2)cc1` (single isomer, unassigned; dia-1) [16 dia-1], in series [1], the “CLint Intestinal S9” value is 8 µL/min/mg. In series [2], the “CLint Liver S9” value is 50 µL/min/mg. In addition, the results for the CC50 with Huh7, in the series with HEP3B and in the series on HepG2 were 1.2 µM, 0.106 µM and 0.151 µM, respectively.

As to `CC[C@@H](C)OC(=O)[C@H](C)NP(=O)(OC[C@H]1OC[C@@H](n2ccc(N)nc2=O)O1)Oc1ccccc1` (single isomer, unassigned; dia-1) [18 dia-1], the “CLint Intestinal S9” value in series [1] came to 6 µL/min/mg. For the same compound, the “CLint Liver S9” value in series [2] came out at 21 µL/min/mg. For the same compound, the figures for the CC50 in the series with Huh7, with HEP3B and in the series on HepG2 were 0.461 µM, 0.228 µM and 0.248 µM, respectively.

As to `CCCC(CCC)COC(=O)[C@H](C)NP(=O)(OC[C@H]1OC[C@@H](n2ccc(N)nc2=O)O1)Oc1ccc(Br)cc1` (single isomer, unassigned; dia-1) [23 dia-1], the “CLint Intestinal S9” value in series [1] was determined as 32 µL/min/mg. Further, the “CLint Liver S9” value in series [2] was 186 µL/min/mg. The CC50 came to 0.01 µM in the series on HEP3B and 0.0086 µM with HepG2.

For `COC(=O)[C@H](C)NP(=O)(OC[C@H]1OC[C@@H](n2ccc(N)nc2=O)O1)Oc1ccccc1` (single isomer, unassigned; dia-1) [26 dia-1], in series [1], the “CLint Intestinal S9” value amounted to 6 µL/min/mg. Besides, the “CLint Liver S9” value in series [2] came to 7 µL/min/mg. Also, the CC50 in the series on HEP3B is 4.34 µM; with HepG2, 1.21 µM.

Take `CC(C)OC(=O)[C@H](C)NP(=O)(OC[C@H]1OC[C@@H](n2ccc(N)nc2=O)O1)Oc1cccc2ccccc12` (single isomer, unassigned; dia-2) [5 dia-2]: the “CLint Intestinal S9” value in series [1] worked out at 13 µL/min/mg. In series [2], the “CLint Liver S9” value was 31 µL/min/mg. Besides, the CC50 in the series with Huh7 worked out at 0.602 µM; in the series with HepG2 it was 0.114 µM.

With `C[C@H](NP(=O)(OC[C@H]1OC[C@@H](n2ccc(N)nc2=O)O1)Oc1cccc2ccccc12)C(=O)OC1CCCCC1` (single isomer, unassigned; dia-2) [6 dia-2], in series [1], the “CLint Intestinal S9” value amounted to 25 µL/min/mg. Further, the “CLint Liver S9” value in series [2] came out at 61 µL/min/mg. Further, the CC50 in the series with Huh7 came out at 0.316 µM; with HepG2, 0.048 µM.

Regarding `Nc1ccn([C@@H]2CO[C@H](COP(=O)(N[C@@H](Cc3ccccc3)C(=O)OC3CCCCC3)Oc3ccc(Br)cc3)O2)c(=O)n1` (single isomer, unassigned; dia-2) [7 dia-2], in series [1], the “CLint Intestinal S9” value is 27 µL/min/mg. Besides, in series [2], the “CLint Liver S9” value amounted to 60 µL/min/mg. Further, the figures for the CC50 in the series on Huh7 and in the series with HepG2 were 0.134 µM and 0.058 µM, respectively.

Consider `CCCC(CCC)COC(=O)[C@H](C)NP(=O)(OC[C@H]1OC[C@@H](n2ccc(N)nc2=O)O1)Oc1ccccc1` (single isomer, unassigned; dia-2) [8 dia-2], for which the figures for the CC50 in the series on Huh7, with HEP3B and in the series on HepG2 were 0.074 µM, 0.035 µM and 0.017 µM, respectively.

Take `C[C@H](NP(=O)(OC[C@H]1OC[C@@H](n2ccc(N)nc2=O)O1)Oc1cccc2ccccc12)C(=O)OCc1ccccc1` (single isomer, unassigned; dia-2) [9 dia-2]: the “CLint Intestinal S9” value in series [1] turned out to be 127 µL/min/mg. Besides, in series [2], the “CLint Liver S9” value was 94 µL/min/mg. In addition, the results for the CC50 in the series on Huh7 and in the series with HepG2 were 0.158 µM and 0.016 µM, respectively.

With `CC[C@@H](C)OC(=O)[C@H](C)NP(=O)(OC[C@H]1OC[C@@H](n2ccc(N)nc2=O)O1)Oc1ccc([Si](C)(C)C)cc1` (single isomer, unassigned; dia-2) [11 dia-2], the “CLint Intestinal S9” value in series [1] worked out at 28 µL/min/mg. The “CLint Liver S9” value in series [2] was found to be 81 µL/min/mg. The values for the CC50 with HEP3B and in the series with HepG2 were 0.031 µM and 0.054 µM, respectively.

As for `Nc1ccn([C@@H]2CO[C@H](COP(=O)(N[C@@H](Cc3ccccc3)C(=O)OCc3ccccc3)Oc3cccc(C4CC4)c3)O2)c(=O)n1` (single isomer, unassigned; dia-2) [12 dia-2], the “CLint Intestinal S9” value in series [1] is 300 µL/min/mg. In addition, the “CLint Liver S9” value in series [2] is 97 µL/min/mg. The figures for the CC50 in the series with Huh7 and with HepG2 were 5.02 µM and 1.09 µM, respectively.

Regarding `CCCC(CCC)COC(=O)[C@H](C)NP(=O)(OC[C@H]1OC[C@@H](n2ccc(N)nc2=O)O1)Oc1cccc2ccccc12` (single isomer, unassigned; dia-2) [14 dia-2], the “CLint Intestinal S9” value in series [1] is 59 µL/min/mg. In addition, in series [2], the “CLint Liver S9” value amounted to 159 µL/min/mg. The CC50 in the series with Huh7 turned out to be 0.2 µM; with HepG2, 0.012 µM.

Consider `CCC(CC)COC(=O)[C@H](C)NP(=O)(OC[C@H]1OC[C@@H](n2ccc(N)nc2=O)O1)Oc1ccccc1` (single isomer, unassigned; dia-2) [15 dia-2], for which, in series [1], the “CLint Intestinal S9” value was found to be 36 µL/min/mg. Besides, the “CLint Liver S9” value in series [2] is 95 µL/min/mg. Besides, the CC50 in the series with Huh7 was 0.026 µM; in the series on HepG2, 0.019 µM.

On to `CCC[C@H](C)OC(=O)[C@H](C)NP(=O)(OC[C@H]1OC[C@@H](n2ccc(N)nc2=O)O1)Oc1ccc(C2CC2)cc1` (single isomer, unassigned; dia-2) [16 dia-2], for which the “CLint Intestinal S9” value in series [1] was 8 µL/min/mg. Besides, the “CLint Liver S9” value in series [2] stood at 59 µL/min/mg. Also, the half-maximal cytotoxic concentration (CC50) with Huh7 worked out at 0.152 µM; in the series with HEP3B, 0.053 µM; with HepG2, 0.13 µM.

Take `CC[C@@H](C)OC(=O)[C@H](C)NP(=O)(OC[C@H]1OC[C@@H](n2ccc(N)nc2=O)O1)Oc1ccccc1` (single isomer, unassigned; dia-2) [18 dia-2]: the “CLint Intestinal S9” value in series [1] came to 7 µL/min/mg. Further, in series [2], the “CLint Liver S9” value was determined as 30 µL/min/mg. The results for the CC50 in the series on Huh7, in the series with HEP3B and in the series with HepG2 were 0.076 µM, 0.113 µM and 0.065 µM, respectively.

On to `C[C@H](NP(=O)(OC[C@H]1OC[C@@H](n2ccc(N)nc2=O)O1)Oc1ccccc1)C(=O)OCc1ccccc1` (single isomer, unassigned; dia-2) [19 dia-2], for which the “CLint Intestinal S9” value in series [1] was determined as 17 µL/min/mg. In addition, the “CLint Liver S9” value in series [2] was found to be 24 µL/min/mg. The CC50 is 0.071 µM in the series on Huh7, 0.058 µM with HEP3B and 0.014 µM in the series with HepG2.

`CCC(CC)OC(=O)[C@H](C)NP(=O)(OC[C@H]1OC[C@@H](n2ccc(N)nc2=O)O1)Oc1ccccc1` (single isomer, unassigned; dia-2) [21 dia-2]: in series [1], the “CLint Intestinal S9” value worked out at 10 µL/min/mg. For the same compound, the “CLint Liver S9” value in series [2] amounted to 22 µL/min/mg. Further, the CC50 in the series on Huh7 is 0.07 µM; in the series with HepG2 it was 0.048 µM.

In the case of `C[C@H](NP(=O)(OC[C@H]1OC[C@@H](n2ccc(N)nc2=O)O1)Oc1cccc2ccccc12)C(=O)OC1CCCC1` (single isomer, unassigned; dia-2) [22 dia-2], the “CLint Intestinal S9” value in series [1] came to 34 µL/min/mg. Further, the “CLint Liver S9” value in series [2] amounted to 43 µL/min/mg. In addition, the CC50 was 0.04 µM in the series on Huh7 and 0.011 µM in the series on HepG2.

`CCCCCCCCCCCCCCCC(=O)Nc1ccn([C@@H]2CO[C@H](COP(=O)(N[C@@H](C)C(=O)OC(C)C)Oc3ccccc3)O2)c(=O)n1` (single isomer, unassigned; dia-2) [35 dia-2]: the “CLint Intestinal S9” value in series [1] amounted to 51 µL/min/mg. Further, in series [2], the “CLint Liver S9” value was 34 µL/min/mg. The results for the CC50 in the series with Huh7 and in the series on HepG2 were 0.011 µM and 0.007 µM, respectively.
